In patent US10093646B2, “1-pyridazin-/triazin-3-yl-piper(-azine)/idine/pyrolidine derivatives and compositions thereof for inhibiting the activity of SHP2” (Novartis AG, priority 2014, dated 2018) one finds IC50 data, which are given here for ten molecules.

For this assay, the target named is SHP2 (Homo sapiens (Human), UniProt Q06124). Briefly: SHP2 Allosteric Inhibition Assay (DiFMUP prompt fluorescence). The class given is biochemical. Particulars: 0.5 nM SHP2 activated with 0.5 μM peptide IRS1_pY1172(dPEG8)pY1222, substrate DiFMUP. An excerpt: SHP2 Allosteric Inhibition Assay
Chain of SHP2 (Q06124 whole entry): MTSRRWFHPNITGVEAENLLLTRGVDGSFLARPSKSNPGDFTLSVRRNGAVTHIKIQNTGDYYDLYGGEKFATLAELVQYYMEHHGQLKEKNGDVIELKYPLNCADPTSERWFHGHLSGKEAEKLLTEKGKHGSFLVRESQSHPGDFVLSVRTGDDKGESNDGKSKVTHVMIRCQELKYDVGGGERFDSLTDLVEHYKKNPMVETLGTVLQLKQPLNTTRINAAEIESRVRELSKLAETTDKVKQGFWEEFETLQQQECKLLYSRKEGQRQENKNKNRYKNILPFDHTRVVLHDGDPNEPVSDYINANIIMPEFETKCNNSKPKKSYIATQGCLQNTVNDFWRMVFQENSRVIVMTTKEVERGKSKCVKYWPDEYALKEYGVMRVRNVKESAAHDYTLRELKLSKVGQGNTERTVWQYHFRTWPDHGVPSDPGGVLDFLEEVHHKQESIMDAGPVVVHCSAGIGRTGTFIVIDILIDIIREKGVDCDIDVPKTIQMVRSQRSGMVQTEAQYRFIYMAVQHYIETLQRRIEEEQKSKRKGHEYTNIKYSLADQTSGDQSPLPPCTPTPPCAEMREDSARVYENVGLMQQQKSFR
SHP2 is allosterically activated through binding of bis-tyrosyl-phosphorylated peptides to its Src Homology 2 (SH2) domains.

The molecule `CCCC1(CN)CCN(c2cnc(-c3cccc(Cl)c3Cl)c(N)n2)CC1` [Example 15] yielded an IC50 of 75 nM.

In turn, `C[C@]1(N)CCN(c2cnc(-c3cccc(Cl)c3Cl)c(N)n2)C[C@@H]1O` [Example 16] showed an IC50 of 93 nM.

Consider `Nc1nc(N2CC3CNCC32)cnc1-c1cccc(Cl)c1Cl` (stereo not shown) [Example 20], for which half-maximal inhibition (IC50) was put at 404 nM.

Take `NCC1(c2cnccn2)CCN(c2cnc(-c3cccc(Cl)c3Cl)c(N)n2)CC1` [Example 18]: the IC50 came out at 93 nM.

As for `NCC1(c2ccccn2)CCN(c2cnc(-c3cccc(Cl)c3Cl)c(N)n2)CC1` [Example 19], half-maximal inhibition (IC50) required 110 nM.

`Nc1nc(N2CCC3NCCC3C2)cnc1-c1cccc(Cl)c1Cl` (stereo not shown) [Example 10]: inhibition was half-maximal at 908 nM (IC50).

In turn, `NCC1(c2ccccc2)CCN(c2cnc(-c3cccc(Cl)c3Cl)c(N)n2)CC1` [Example 12] had an IC50 of 65 nM.

`Nc1nc(N2CC3CNCC3C2)cnc1-c1cccc(Cl)c1Cl` (stereo not shown) [Example 21] registered an IC50 of 102 nM.

The molecule `NCC1(c2ccncc2)CCN(c2cnc(-c3cccc(Cl)c3Cl)c(N)n2)CC1` [Example 17] returned an IC50 of 102 nM.

Molecule `Nc1nc(N2CC3C(N)C3C2)cnc1-c1cccc(Cl)c1Cl` (stereo not shown) [Example 13] showed an IC50 of 65 nM.

As a reminder, the IC50 is the concentration that gives 50% inhibition.
